Measured values from a melting point compilation (Tetko et al.; mined from patent text by program, amines drawn as free bases though some values may be those of a salt).

Row | Compound | melting point [°C]
1 | CC(C)Oc1ccc2nc(CO)n(C)c2n1 | 125 to 127
2 | O=c1c2ccc(Cl)cc2[nH]c2c(O)nn(Cc3ccoc3)c(=O)c12 | > 250
3 | Cc1nc(-c2c(Cl)cc(C(F)(F)F)cc2Cl)[nH]c1S(N)(=O)=O | 266 to 267
4 | CC1(C)CCC(C)(C)c2cc(-c3cc(-c4ccc(C(=O)OCc5ccccc5)cc4)ccc3O)ccc21 | 90 to 91
5 | C[C@@H](C(=O)O)N(C)C(=O)CCSSc1ccc([N+](=O)[O-])cc1 | 74 to 77
6 | COc1cc(OCc2ccccn2)ccc1/C=C/c1cc(/C=C/c2cccc3ncccc23)[nH]n1 | 107 to 120
7 | Cn1c(CNCC2(C)COC2)cc2cc(NC(=O)c3ccc(OCC4CC4)cc3)ccc21 | 154 to 155
8 | COC[C@H]1CC[C@@H](n2c(=O)[nH]c3c(C(N)=O)nc(-c4cccc(O)c4)nc32)CC1 | 324 to 326
9 | Cc1ccc(C(=O)NCc2ccc(Br)cc2F)c(OCC(=O)O)c1 | 188 to 189
10 | Cc1ccc(Cl)cc1-c1cc(F)cc2c1O[C@@H](CN)C2 | 148 to 150
11 | CC(C)OC(=O)c1ncn2c1CN(C)C(=O)c1cc(F)ccc1-2 | 243 to 244
12 | COCC1CCCN1Cc1ccc2cc(NC(=O)c3ccc(-c4ccc(Cl)cc4)cc3)ccc2n1 (configuration not stated) | 172 to 174
13 | O=C1C(c2cccc(Br)c2)n2cncc2CN1Cc1ccsc1 (configuration not stated) | 43 to 45
14 | Oc1cnccc1CCCOc1cccnc1Oc1ccccc1 | 163 to 165
15 | O=C(N[C@H](Cc1ccccc1C(F)(F)F)[C@@H](O)c1ccc(F)cc1)c1cccc2ccccc12 (racemic) | 193 to 194
16 | COC(=O)CN(C)C(=O)c1c(OC)ccc2c(Br)c(OC)ccc12 | 142 to 144
17 | Cc1ccc(CC(=O)c2sccc2S(=O)(=O)Nc2onc(C)c2Br)cc1 | 146 to 150
18 | CCOC(=O)c1c(C2CC2)nn(CC)c1Cc1ccc(-c2ccccc2-c2nnn[nH]2)cc1 | 73 to 77
19 | NC(=O)c1cn(CC2CC2)c2ccccc12 | 170
20 | COCCn1cc2c(n1)c(N)nc1ccccc12 | 230 to 231
21 | CCOc1cc2nc(NC)nc(-c3cccc(Br)c3)c2cc1OCC | 130 to 132
22 | Cc1nc(C)c(N2CCCn3c2nc2c(Cl)ccc(C(OC(F)F)C(F)(F)F)c23)c(C)n1 (configuration not stated) | 168 to 170
23 | C=C(C(=O)O)c1ccccc1OC | 144
24 | Cc1ccc(S(=O)(=O)Oc2ccc(C=O)cc2)cc1 | 70 to 72
25 | COc1ccc(-n2c(-c3ccccn3)nc(SC)c(C#N)c2=O)cc1 | 246 to 253

Row | Compound | melting point [°C]
26 | CC1(C)C(=O)Oc2ccc3ccc(Cn4cnnc4)cc3c21 | 256 to 257
27 | COC1C=C(C)C(=O)CC(C)(C)C1OC(=O)c1ccc([N+](=O)[O-])c([N+](=O)[O-])c1 (configuration not stated) | 103 to 104
28 | COc1nsc(S(=O)(=O)c2ccccc2)c1C#N | 64
29 | CCn1c(=O)c2[nH]c(/C=C/c3cc(OC)c(OC)cc3[N+](=O)[O-])nc2n(CC)c1=O | 284
30 | O=C(c1ccco1)c1cnn2c(-c3cccc(N4CCCCC4=O)c3)ccnc12 | 159 to 160
31 | CC1=C(C(=O)O)[C@H](c2cccc([N+](=O)[O-])c2)C(C(=O)OCOC(=O)C(C)(C)C)=C(C)N1 | 146 to 148
32 | O=C1c2c(Cl)cc(Cl)c(Cl)c2C(=O)N1c1ccccc1 | 199 to 200
33 | CC1(C)CN(C2CC3(C)C(CCC4C3CCC3(C)C(C(=O)CO)CCC43)CC2O)CCO1 (configuration not stated) | 184 to 186
34 | CC(=O)OC(COc1ccc(C(=O)O)c(O)c1)c1ccc2c(c1)C(C)(C)CCC2(C)C (configuration not stated) | 160 to 161
35 | COc1ccc(C(=O)Nc2ccccc2NC(=O)c2ccc(OC)c(OC)c2)cc1OC | 191 to 192
36 | COc1ccc2c(c1)CCC(c1ccncc1)O2 (configuration not stated) | 88 to 91
37 | CCOc1ccc(N(Cc2ccccc2)Cc2ccccc2)cc1 | 80 to 82
38 | Clc1ccc2c(c1)C(c1ccccc1)=Nc1cccnc1N2 | 156 to 158
39 | CC1CC(C)CN(C(=O)c2ccc(Cl)cc2)C1 (configuration not stated) | 114 to 115
40 | COc1cc(C(=O)Nc2c(Cl)cncc2Cl)cc2c1oc1ccccc12 | 165 to 166
41 | NCCOc1ccc(O)cc1 | 175
42 | O=C(O)Cc1ccc(OCCCc2cc(-c3ccc(C(F)(F)F)cc3)no2)cc1 | 127 to 128
43 | CC(C)(C)c1ccc(C(=O)CCCCCC2CCCCC2)cc1NC(=O)CC1c2ccccc2Oc2ccccc21 | 134
44 | Cc1cc(-n2cncn2)c2cccc(OCc3c(Cl)ccc(S(=O)(=O)N4CCC[C@H]4C(=O)N4CCN(c5ccccn5)CC4)c3Cl)c2n1 | 108
45 | CC(C)(ON1C(C)(C)CC(OC(=O)c2ccccc2)CC1(C)C)c1ccccc1 | 105 to 108
46 | CC(=O)Nc1nc2c(ncn2CCC(CO)CO)c(=O)[nH]1 | 143 to 146
47 | Cn1nc2cccc(OCC3CC3)c2c1S(N)(=O)=O | 139 to 141
48 | CC(C)(c1ccc(Oc2cccc(N)c2)cc1)c1ccc(C(C)(C)c2ccc(Oc3cccc(N)c3)cc2)cc1 | 138 to 140
49 | O=C(O)CNC(COCc1cc(C(F)(F)F)cc(C(F)(F)F)c1)C(c1ccccc1)c1ccccc1 (configuration not stated) | 116 to 119
50 | CCOC(=O)c1cc(OC(C)=O)c2c(c1)c1ccccc1n2C | 123 to 125

Row | Compound | melting point [°C]
51 | O=C(Nc1ccc(C(F)(F)F)cc1)Nc1ccc2c(c1)COC2=O | 297 to 307
52 | CCC(=O)OC1=C(CCCCCCCCC[Si](C)(C)C)C(=O)c2ccccc2C1=O | 41 to 43
53 | CC(C)NS(=O)(=O)c1ccc(S(N)(=O)=O)cc1 | 166 to 168
54 | O=C1CN(C(=O)OCC2c3ccccc3-c3ccccc32)CC(=O)O1 | 180 to 185
55 | CC(C)(C)NCC(O)c1ccc(N)c(C#N)c1Cl (configuration not stated) | 85 to 88
56 | CN(CCO)S(=O)(=O)c1cc(NC(=O)c2cnn3c(C(F)F)cc(-c4ccc(C(F)(F)F)cc4)nc23)c(Cl)s1 | 231
57 | C=C1c2ccccc2C2(CCN(C)CC2)c2cccc(O)c21 | 117 to 120
58 | CCc1n[nH]c(CC)c1CCCCCCOc1ccc(O)cc1Cl | 109 to 111
59 | CSc1nn2c(N3CCNCC3)cc(C(C)(C)C)nc2c1S(=O)(=O)c1ccccc1 | 236 to 237
60 | O=S(=O)(c1ccccc1)N1CCCCC1CSc1ccc(Cl)cc1 (configuration not stated) | 78.5 to 80
61 | COc1cc(NC(=S)C2(C)CCc3c(C)c(O)c(C)c(C)c3O2)cc(OC)c1OC (configuration not stated) | 147 to 148
62 | OCc1cc(-c2ccc(Cl)c(Cl)c2)n(Cc2cccc(Cl)c2)n1 | 95
63 | COc1ccc(CC(C)(N)C(=O)O)cc1 (configuration not stated) | 243 to 244
64 | Fc1ccc2c(c1)C1=NCCN1C(Cl)=N2 | 209 to 211
65 | CCOC(=O)[C@H](Cc1ccc(-c2c(C)n(C)c(=O)n(C)c2=O)cc1)NC(=O)c1c(Cl)cccc1Cl | 262 to 265
66 | CC(=O)Oc1cc2nc(-c3ccccc3)nn2c2ccccc12 | 200 to 202
67 | COc1ccc(C=C2COCC(=Cc3ccc(OC)c(C)c3C)C2=O)c(C)c1C | 225 to 227
68 | COc1ccc(Nc2ccc(Nc3ncnc4cc(-c5ccc(OC)nc5)sc34)cc2)cc1 | 149 to 159
69 | CC#CC(C)n1nnc2cc3c(=O)n(C(C)Cn4ncnn4)nnc3cc2c1=O (configuration not stated) | 72 to 74
70 | CCCCN(CCCC)c1ccc(C=Cc2ccc(C=CC3=C(C#N)C(=C(C#N)C#N)OC3(C)C)s2)c(O[Si](c2ccccc2)(c2ccccc2)C(C)(C)C)c1 | 218 to 219
71 | NC(=S)NN=C(COC(=O)Nc1ccccc1)c1ccccc1 | 155 to 165
72 | Cc1cc(C)c(Nc2nc(C)ncc2S(=O)(=O)c2ccc(C3=NCCN3)cc2)c(C)c1 | 240 to 242
73 | CNc1ncccc1C(=O)Nc1ccc2c(c1)-c1c(c(C(N)=O)nn1-c1ccc3c(c1)OCO3)CC2 | 273 to 275
74 | CC(C)=CCNc1ncnc2nc(NCCN)[nH]c12 | 96 to 102
75 | Nc1cccc(-c2ccc(CCN3CCN(c4cccc(C(F)(F)F)c4)CC3)cc2)n1 | 189 to 191

Row | Compound | melting point [°C]
76 | Cc1ccc(-c2cc(C(F)(F)F)n3cnc(C#N)c3n2)cc1C(F)(F)F | 220
77 | Cn1nnc(-c2cc(-c3ccc(F)cc3)sc2-c2ccc(F)cc2)n1 | 150 to 152
78 | O=C(NC[C@H]1CN(c2ccc(N3CCS(=O)(=O)CC3)c(F)c2)C(=O)O1)C(F)F | 177 to 178
79 | CCOC1=NC(N)=C(C(=O)OC)C(c2cccc(Cl)c2)C1C(=O)OC (configuration not stated) | 158
80 | ClC[Si](c1ccccc1)(c1ccccc1)c1ccccc1 | 112 to 115
81 | CCN(C=O)C1CCC(CNc2nc3c(s2)CCOc2ccccc2-3)CC1 (configuration not stated) | 210 to 213
82 | CCOCc1nc2cnc3cc(OCCNC(=O)OC(C)(C)C)ccc3c2n1CC1COC(C)(C)O1 (configuration not stated) | 152 to 153
83 | CC1(C)CCOC1=Cn1cncn1 | 47
84 | CS(=O)(=O)c1ccc(Nc2ccn(-c3ccccc3)n2)cc1 | 185 to 187
85 | CCCCc1nc(N)c(C#N)[nH]1 | 115 to 116
86 | C#CCOc1cc(Oc2ccc(Cl)cc2Cl)ncn1 | 107
87 | CC12C=CC(C1)C(C(N)=O)C2(C(N)=O)c1cccc(Br)c1 (configuration not stated) | 111 to 113
88 | CC1(C)C(=O)N(c2ccc(C#N)c(C(F)(F)F)c2)C(=O)N1CCCCOCc1ccccc1 | 75 to 76
89 | COc1cnn(C2CCCCO2)c(=O)c1Cl (configuration not stated) | 118 to 120
90 | COc1cc(Nc2c(C#N)cnc3cc(/C=C/CCN4CCCC4)c(OC)cc23)c(Cl)cc1Cl | 158 to 159
91 | COC(=O)c1[nH]c2ncccc2c1-c1ccc(N)cc1 | 236
92 | Cn1cnc2nc(NC(=O)c3ccccc3)nn2c1=S | 273 to 276
93 | Cc1ccc(-c2ccc3c(c2)C(=O)CC3)cc1 | 121 to 122
94 | CCOc1cc2cc(CO)cc(-c3ccnc(-n4nc(C)c5ccccc5c4=O)c3)c2cc1OCC | 220 to 221
95 | O=C(Nc1ccccc1S(=O)(=O)c1ccccc1)N[C@@H](Cc1ccc(NC(=O)c2c(Cl)cncc2Cl)cc1)C(=O)O | 214
96 | O=C1CC(c2ccc(Cl)cc2Cl)Cc2[nH]c3ccc(Cl)cc3c(=O)c21 (configuration not stated) | 308 to 310
97 | CCOC(=O)C(=O)N(CCBr)N=Cc1ccccc1 | 56 to 57
